One assay addresses thrombin (Bos taurus, UniProt P00735). Nature of the assay: Inhibition of thrombin (dissociation constant Ki). Format: biochemical.
A further assay concerns the target factor Xa (Bos taurus, UniProt P00743). Kind of assay: Inhibition of factor Xa (dissociation constant Ki). Format: biochemical. The conditions noted are these: Tables 19-25; read-out: Ki, Factor Xa.

Where a name gives a salt, the structure may show the parent alone.

In US5518735A, “Meta-substituted phenylalanine derivatives” (priority 1990, dated 1996) one finds Ki data, which are given here for 14 compounds.

Sequence of factor Xa (P00743 234-492 limits assumed): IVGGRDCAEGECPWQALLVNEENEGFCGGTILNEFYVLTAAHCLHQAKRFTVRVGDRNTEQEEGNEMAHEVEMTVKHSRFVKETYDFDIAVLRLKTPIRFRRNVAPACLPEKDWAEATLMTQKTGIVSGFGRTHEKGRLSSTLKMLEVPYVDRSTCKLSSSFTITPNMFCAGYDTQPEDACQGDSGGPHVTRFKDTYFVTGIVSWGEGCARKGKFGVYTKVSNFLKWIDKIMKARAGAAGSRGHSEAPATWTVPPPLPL
Sequence of factor Xa (P00743 41-180 partner limits assumed): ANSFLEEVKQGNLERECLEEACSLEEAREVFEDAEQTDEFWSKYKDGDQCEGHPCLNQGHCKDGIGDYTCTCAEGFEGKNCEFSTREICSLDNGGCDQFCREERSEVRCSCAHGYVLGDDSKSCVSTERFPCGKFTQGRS

With `CC1CCCCN1C(=O)C(Cc1cccc(C(=N)N)c1)NS(=O)(=O)c1ccc2ccccc2c1` (racemic) [Compound 32], the inhibition constant Ki on thrombin worked out at 0.13 µM; on factor Xa it was 74 µM.
Consider `N=C(N)c1cccc(CC(NS(=O)(=O)c2ccc3ccccc3c2)C(=O)N2CCCCC2C(=O)NCC(=O)O)c1` (racemic) [Compound 116, N-α-(2-Naphthylsulfonyl)-3-amidino-(D,L)-phenylalanyl-(D,L)-pipecolyl-glycine hydrochloride], for which the inhibitory constant (Ki) was 1.3 µM on thrombin and 110 µM on factor Xa.
The matching figures for `COC(=O)CNC(=O)C1CCCCN1C(=O)C(Cc1cccc(C(=N)N)c1)NS(=O)(=O)c1ccc2ccccc2c1` (racemic) [Compound 117, N-α-(2-Naphthylsulfonyl-3-amidino-(D,L)-phenylalanyl-(D,L)-pipecolyl-glycine-methyl ester hydrochloride]: 0.88 µM and 38 µM.
Turning to `N=C(N)c1cccc(CC(NS(=O)(=O)c2ccc3ccccc3c2)C(=O)N2CC3CCCCC3CC2C(=O)O)c1` (racemic) [Compound 151, N-α-(2-Naphthylsulfonyl)-3-amidino-(D,L)-phenylalanyl-decahydroisoquinoline-3-carboxylic acid hydrochloride], the inhibition constant Ki at thrombin turned out to be 0.12 µM; on factor Xa, 54 µM.
As for `N=C(N)c1cccc(CC(NC(=O)CNS(=O)(=O)c2ccc3ccccc3c2)C(=O)N2CCCCC2C(=O)O)c1` (racemic) [Compound 165], the Ki is 61 µM at thrombin and 48 µM at factor Xa.
Taken in the same sequence, the figures for `N=C(N)c1cccc(CC(NC(=O)CNS(=O)(=O)c2ccc3ccccc3c2)C(=O)N2CCC(C(=O)O)CC2)c1` (racemic) [Compound 166] were 46 µM and 97 µM.
Taken in the same sequence, the figures for `N=C(N)c1cccc(CC(NS(=O)(=O)c2cccc3cccnc23)C(=O)N2CCCCC2C(=O)O)c1` (racemic) [Compound 180] were 16 µM and 380 µM.
Taken in the same sequence, the figures for `N=C(N)c1cccc(CC(NS(=O)(=O)c2cccc3cccnc23)C(=O)N2CCC(C(=O)O)CC2)c1` (racemic) [Compound 181] were 127 µM and 260 µM.
As to `NCc1cccc(CC(NS(=O)(=O)c2ccc3ccccc3c2)C(=O)N2CCCCC2C(=O)O)c1` (racemic) [Compound 185, N-α-(2-Naphthylsulfonyl)-3-aminomethyl-(D,L)-phenylalanyl-(D,L)-pipecolic acid], the Ki at thrombin was determined as 50 µM; on factor Xa it was 140 µM.
On to `CC1CCN(C(=O)C(Cc2cccc(C(=N)NO)c2)NS(=O)(=O)c2ccc3ccccc3c2)CC1` (racemic) [Compound 187, N-α-(2-Naphthylsulfonyl)-3-oxamidino-(D,L)-phenylalanine-4-methylpiperidide hydroiodide], for which the inhibition constant (Ki) on thrombin is 2.8 µM; at factor Xa, more than 1000 µM.
Regarding `N=C(NO)c1cccc(CC(NS(=O)(=O)c2ccc3ccccc3c2)C(=O)N2CCCCC2C(=O)O)c1` (racemic) [Compound 188, N-α-(2-Naphthylsulfonyl)-3-oxamidino-(D,L)-phenylalanyl-(D,L)-pipecolic acid hydroiodide], the Ki on thrombin was 330 µM; on factor Xa, 410 µM.
The matching figures for `N=C(NO)c1cccc(CC(NS(=O)(=O)c2ccc3ccccc3c2)C(=O)N2CCC(C(=O)O)CC2)c1` (racemic) [Compound 189, N-α-(2-Naphthylsulfonyl)-3-oxamidino-(D,L)-phenylalanyl-isonipecotic acid hydroiodide]: 270 µM and 670 µM.
Taken in the same sequence, the figures for `Nc1cccc(CC(NS(=O)(=O)c2ccc3ccccc3c2)C(=O)N2CCCCC2C(=O)O)c1` (racemic) [Compound 204] were 130 µM and 450 µM.
Taken in the same sequence, the figures for `Nc1cccc(CC(NS(=O)(=O)c2ccc3ccccc3c2)C(=O)N2CCC(C(=O)O)CC2)c1` (racemic) [Compound 205] were 720 µM and 720 µM.

Usually Ki stands for the dissociation constant of the complex between target and ligand, obtained from inhibition or displacement.
